Usually pIC50 stands for the negative decadic logarithm of the IC50, by convention in mol/L. The low end stands for a large IC50, the high end for a small IC50.

Two compounds from ChEMBL document CHEMBL1127513, “Glutathione-S-transferase activates novel alkylating agents” (J Med Chem, 1994) can be followed below.

What all share (format): functional, cell-based
Test [1] relates to HT-29. The experiment in a line: Inhibitory activity against HT-29 human colon carcinoma cells containing P1-1 GST for treatment time of 120 min. Particulars: HT-29, 2 h.
The test system of test [2] is HT-29. The experiment in a line: Inhibitory activity against HT-29 human colon carcinoma cells containing P1-1 GST for treatment time of 60 min. Particulars: HT-29, 1 h.
In test [3] the test system is MCF7. The experiment in a line: Inhibitory activity against MCF-7 pi cells containing P1-1 GST for treatment time of 120 min. Particulars: Homo sapiens, MCF7, 2 h.
Test [4] deals with MCF7. The experiment in a line: Inhibitory activity against MCF-7 neo cells […] for treatment time of 120 min. The settings on record: Homo sapiens, MCF7, 2 h.

pIC50: −log10 of the molar value.

In the case of `NC(CCC(=O)NC(CS(=O)(=O)CCOP(=O)(N(CCCl)CCCl)N(CCCl)CCCl)C(=O)NC(C(=O)O)c1ccccc1)C(=O)O` (stereo not drawn), the pIC50 was 4.10 in test [1], 3.77 in test [2], 5.02 in test [3] and 4.43 in test [4].

On to `NC(CCC(=O)NC(CS(=O)(=O)CCOP(=O)(N(CCCl)CCCl)N(CCCl)CCCl)C(=O)NCC(=O)O)C(=O)O` (stereo not drawn), for which the pIC50 in test [1] is 4.16; in test [2], 4.07; in test [3], 4.68; in test [4], 4.40.
